According to patent publication US20100068150A1, “Selective Caspase Inhibitors” (The Board of Trustees of the Leland Stanford Junior …, priority 2006, published 2010):

How the values were obtained:
cathepsin B and legumain = assay: In vivo labeling of cathepsin B and legumain in kidney and spleen of normal mice; settings: intravenous, tissues collected 2 hrs after injection
Experimental: The present selective caspase inhibitors may be used for in vivo imaging. Cy5-fluorescent labeled versions of AB46 and AB50 were injected into normal mice and labeling of cathepsins and legumain in kidney and spleen was monitored (FIG. 14).
Normal mice were intravenously injected with the probes and tissues were collected 2 hrs after injection. Tissues were homogenized and total protein samples were analyzed by SDS-PAGE followed by scanning of the gel using a fluorescent scanner.

caspase-3 = molecular target: T1, caspase-3 (Mus musculus, UniProt P70677); assay: In vivo labeling of caspase-3 in the thymus of dexamethazone treated mice; settings: dexamethazone 40 mg/kg IP, probe by tail vein after 12 or 24 hrs, 3 hrs circulation
T1 construct: from tissue; host or cells: thymus of Balb-c mice
T1 sequence (P70677 29-175 limits assumed): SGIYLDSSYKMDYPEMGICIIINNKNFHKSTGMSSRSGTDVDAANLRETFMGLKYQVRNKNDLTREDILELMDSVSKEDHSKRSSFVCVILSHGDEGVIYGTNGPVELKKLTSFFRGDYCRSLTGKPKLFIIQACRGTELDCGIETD
T1 sequence (P70677 176-277 limits assumed): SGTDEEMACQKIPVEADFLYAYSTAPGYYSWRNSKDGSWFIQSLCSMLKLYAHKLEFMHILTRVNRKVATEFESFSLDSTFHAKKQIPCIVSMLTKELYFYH
Text: The following example utilizes dexamethazone-induced apoptosis in the thymus. See, Cristina et al., “Dexamethasone-induced apoptosis of thymocytes: role of glucocorticoid receptor-associated Src kinase and caspase-8 activation,” prepublished online as a Blood First Edition Paper on Aug. 29, 2002; DOI 10.1182/blood-2002-06-1779. This is a particularly simple model that allows one to activate apoptosis specifically in the thymus by injection of normal mice with low doses of dexamethazone. […] Also, one can monitor changes in activation of caspases with time after induction of apoptosis.
Wild Type Balb-c mice were injected with dexamethazone (40 mg/kg) by IP injection. After 12 or 24 hrs the general caspase probe AB50 was injected by tail vein and the probe allowed to circulate for 3 hrs, at which time tissues from thymus, lung, liver, and kidney were collected. We removed the thymus, kidney and lung and imaged the whole organs using the IVIS2000 system. The tissues were then analyzed by SDS-PAGE and fluorescent scanning of the gels. For comparison we monitored the levels of cleaved, active caspase-3 using a specific antibody. […] An antibody against actin was used as a loading control.

With `Cc1cccc(C)c1C(=O)OCC(=O)[C@H](CC(=O)O)NC(=O)C1CCCN1C(=O)[C@@H](CCC(=O)O)NC(=O)Cc1ccc(O)c([N+](=O)[O-])c1` (stereo partly drawn) [AB50, NP-E-P- D-AOMK] the “in vivo labeling in kidney and spleen” value (cathepsin B and legumain) was “only labeled legumain” and the “in vivo labeling of caspase-3 in thymus” value (caspase-3) was “Bands can be clearly seen at the caspase-3 estimated MW”.
